Active and inactive are the calls of the source. How the calls were made is not given here.
Experiment: non-covalent RecA intein splicing inhibitors, dose response, biochemical, cell-free, fluorescence, secondary screen (AID 449750)

| Compound | AC50 |
| --- | --- |
| CC1=Nc2cccc3cccc(c23)N1C | > 38 µM (inactive) |
| COc1ccc(S(=O)(=O)Nc2c(O)ccc3ccccc23)cc1OC | 22.9 µM |
| CC(C)(C)C(=O)Nc1ccc(N=Nc2ccccc2)cc1 | 7.69 µM |
| Cc1ccc(-n2nc(C)c3c2OC(N)=C(C#N)C3c2ccco2)cc1 (stereo unspecified) | 12.9 µM |
| O=C(CSC1=NCCS1)Nc1nc(-c2ccccc2)cs1 | 30.5 µM |
| S=C1Cc2ccccc2N1 | 3.46 µM |
| Cc1[nH]n(-c2ccccc2)c(=O)c1C(C[N+](=O)[O-])c1ccc(Br)cc1 (stereo unspecified) | 11.1 µM |
| Cc1ccc(NC(=O)C2=C(c3ccccc3)S(=O)(=O)CCS2(=O)=O)cc1 | > 38 µM (inactive) |
| CC(CCc1ccccc1)NC(=O)COC(=O)c1cc(NS(=O)(=O)c2ccc(Cl)c([N+](=O)[O-])c2)ccc1O (stereo unspecified) | 18.8 µM |
| Cc1cc(C(=O)CCl)c(C)n1CC1COc2ccccc2O1 (stereo unspecified) | 19.4 µM |
| O=C(CS(=O)c1ccc(C(F)(F)F)cc1[N+](=O)[O-])Oc1ccccc1 (stereo unspecified) | > 38 µM (inactive) |
| CC1=C(CC(=O)c2ccc(Cl)cc2)C(=O)c2ccccc2C1=O | 16.3 µM |
| Cc1ccc(-c2csc(NC(=O)CSC3=NCCS3)n2)cc1 | 19.1 µM |
| O=C1C2=C(NC(=S)NC2c2ccc(Cl)cc2)NC(c2ccc(Cl)cc2)N1c1ccc(Cl)cc1 (stereo unspecified) | 4.62 µM |
| CC(C)c1nnc(NC(=O)c2nc(S(=O)(=O)Cc3ccc(F)cc3)ncc2Cl)s1 | > 38 µM (inactive) |
| COC(=O)CN1C(c2ccc(Cl)cc2)=Nc2ccc(Cl)cc2C1c1ccccc1 (stereo unspecified) | 5.48 µM |
| CCOc1ccc(C(c2c(C)[nH][nH]c2=O)c2c(C)[nH][nH]c2=O)cc1OCC | 9.1 µM |
| CCCCc1ccc(NC(=O)CSCc2cc(=O)[nH][nH]2)cc1 | 27.1 µM |
| COc1ccc(-c2csc(Nc3ccc(O)cc3)n2)cc1 | > 38 µM (inactive) |
| O=C(CCl)N(Cc1cccc([N+](=O)[O-])c1)c1cccc(Cl)c1 | 2.77 µM |
| CC1OC(Nc2cccc3ccccc23)C(O)C(O)C1O (stereo unspecified) | > 38 µM (inactive) |
| CCC(C)N(CC(=O)Nc1cccc(C)c1C)C(=O)CCl (stereo unspecified) | 30.2 µM |

| Compound | AC50 |
| --- | --- |
| O=C(CCl)N1c2ccccc2OCC1c1ccccc1 (stereo unspecified) | 12.7 µM |
| Cn1ccnc1Sc1cc(NCCCO)c([N+](=O)[O-])c2nonc12 | > 38 µM (inactive) |
| C/C(CC(=O)Nc1ccccn1)=N\NC(=O)Cc1cccc2ccccc12 | 25.6 µM |
| CCCc1nn(C)c2c1C(c1cccnc1)C(C#N)=C(N)O2 (stereo unspecified) | > 38 µM (inactive) |
| CCOc1ccc(CN(C)C(=O)CCl)cc1 | 11.1 µM |
| CC(=O)Nc1ccc(OC(=O)c2ccco2)cc1 | > 38 µM (inactive) |
| C/C(CC(=O)Nc1ccc(F)cc1)=N\NC(=O)COc1ccccc1 | > 38 µM (inactive) |
| COC(=O)COc1ccc(C(c2c(C)[nH][nH]c2=O)c2c(C)[nH][nH]c2=O)cc1 | 13 µM |
| O=[N+]([O-])c1cc([N+](=O)[O-])c2c(=Nc3ccccc3)n(-c3ccccc3)n(O)c2c1 | 21.7 µM |
| COc1cccc(C(c2c(C)[nH]n(-c3ccccc3)c2=O)c2c(C)[nH]n(-c3ccccc3)c2=O)c1OC | 2.19 µM |
| O=C(c1cccc(C(F)(F)F)c1)C1CCCN(Cc2ncc[nH]2)C1 (stereo unspecified) | > 38 µM (inactive) |
| C/C(CC(=O)Nc1cc(C)ccn1)=N\NC(=O)c1ccncc1 | 37.4 µM |
| O=c1c(Cl)nc2cc(Cl)ccc2n1CCNc1ncc(C(F)(F)F)cc1Cl | > 38 µM (inactive) |
| CC(/C=C1\SC(=S)N(NC(=O)c2cccc(O)c2)C1=O)=C\c1ccccc1 | 20.9 µM |
| C#CCOc1ccc(OC)cc1C(c1c(C)[nH][nH]c1=O)c1c(C)[nH][nH]c1=O | 17.3 µM |
| O=C(Oc1ccc(N(C(=O)c2ccncc2)S(=O)(=O)c2ccc(Cl)cc2)cc1)c1ccncc1 | > 38 µM (inactive) |
| O=C1C=C(N2CCOCC2)c2ccccc2C1=O | 4.51 µM |
| Cn1c(-c2ccccc2)c(C(=O)CCl)c2ccccc21 | 22.9 µM |
| c1cc2cn[nH]c2cc1NC1CCCCCC1 | 36.2 µM |
| COc1ccc(C2NC(=O)NC3=C2CCc2ccccc23)cc1 (stereo unspecified) | > 38 µM (inactive) |
| CCOC(=O)CN1C(=O)N[C@@H](c2cccc(C(F)(F)F)c2)C(C(C)=O)=C1C | > 38 µM (inactive) |
| Cc1ccc(C(c2c(C)[nH][nH]c2=O)c2c(C)[nH][nH]c2=O)cc1 | 8.37 µM |

| Compound | AC50 |
| --- | --- |
| O=C(O)COc1cccc(/C=C2/SC(=S)N(Cc3ccccc3)C2=O)c1 | 21.5 µM |
| COc1ccc(NC(=O)CSc2c3c(nc4cc(Cl)ccc24)CCCC3)cc1OC | 31.7 µM |
| Cc1ccc([N+](=O)[O-])cc1S(=O)(=O)N(C(=O)c1ccncc1)c1ccc2oc3c(c2c1)CCCC3 | > 38 µM (inactive) |
| CN(Cc1ccc(Cl)cc1)C(=O)CCl | 10.2 µM |
| CC1=NN(c2ccc(C(=O)O)c(N)c2)C(=O)C1 | 2.87 µM |
| CC(=O)Nc1cc(OC(=O)c2ccco2)cc(OC(=O)c2ccco2)c1 | 11.8 µM |
| COc1ccc(C2NC(c3ccc(OC)cc3OC)C(C)C(=O)C2C)c(OC)c1 (stereo unspecified) | > 38 µM (inactive) |
| O=C(CCCN1C(=O)/C(=C/c2cccs2)SC1=S)Nc1ccc(O)cc1 | > 38 µM (inactive) |
| Cc1[nH][nH]c(=O)c1C(c1ccccc1[N+](=O)[O-])C(C#N)C#N (stereo unspecified) | > 38 µM (inactive) |
| CCCc1nn(C)c2c1C(c1ccncc1)C(C#N)=C(N)O2 (stereo unspecified) | > 38 µM (inactive) |
| COc1ccc(CNc2ccc3cn[nH]c3c2)c(OC)c1OC | 14 µM |
| Cc1ccsc1/C=N/NC(=O)Cc1cc(=O)[nH][nH]1 | 5.95 µM |
| Cc1cc(C)c(S(C)(=O)=O)c(Oc2cccc(C(F)(F)F)c2)n1 | > 38 µM (inactive) |
| COc1ccc(/C=C2/C(=O)N(c3ccccc3)N=C2C)c(OC)c1 | 18.5 µM |
| CN1CCc2nc(SCC(=O)Nc3ccc(OC(F)(F)F)cc3)c(C#N)c(-c3cccs3)c2C1 | 23.7 µM |
| COc1ccc(C(c2c(C)[nH]n(-c3ccccc3)c2=O)c2c(C)[nH]n(-c3ccccc3)c2=O)cc1OC | 1.38 µM |
| O=C1CCCC(O)=C1C(C#Cc1ccccc1)C1=C(O)CCCC1=O | 14.7 µM |
| Cc1ccc(CS(=O)(=O)c2ncc(Cl)c(C(=O)Nc3nnc(C)s3)n2)cc1 | > 38 µM (inactive) |
| COc1ccc(/C=C/C(=O)c2ccccc2)cc1COc1ccc(F)cc1 | 2.18 µM |
| Cc1ccc2[nH]c3c(c2c1)CN(C(=O)CN1CCSCC1)CC3 | > 38 µM (inactive) |
| CN1CCN(c2ccc([N+](=O)[O-])c3no[n+]([O-])c23)CC1 | > 38 µM (inactive) |
| Cc1cccc(N2C(=O)C(Cl)=C(N3CCOCC3)C2=O)c1 | > 38 µM (inactive) |

| Compound | AC50 |
| --- | --- |
| Oc1[nH]c2ccccc2c1N=NC(=S)N1CCOCC1 | > 38 µM (inactive) |
| COc1cccc(-c2cc(=O)[nH][nH]2)c1 | 13.9 µM |
| Fc1ccc(-[n+]2nc(Nc3ccccc3)sc2-c2c3ccccc3cc3ccccc23)cc1 | 12.4 µM |
| Cn1c2c(c(=O)n(C)c1=O)[C@@]1(C(=O)Nc3ccccc31)C(C#N)=C(N)O2 | > 38 µM (inactive) |
| COc1cccc(-c2[nH]nc3c2C(c2ccoc2)C(C#N)=C(N)O3)c1 (stereo unspecified) | 28.8 µM |
| CCC1=Nc2cc(C(=O)NCCN3CCCC3)ccc2Sc2ccccc21 | > 38 µM (inactive) |
| O=C(NC1=C(NC2CCS(=O)(=O)C2)C(=O)c2ccccc2C1=O)c1ccccc1 (stereo unspecified) | 1.17 µM |
| Cc1cc2[nH]ncc2cc1NC(=S)NC(=O)c1ccccc1 | > 38 µM (inactive) |
| C/C(CC(=O)Nc1cc(C)ccn1)=N\NC(=O)COc1cccc(C)c1 | 11.1 µM |
| COc1ccc2ccc3c(c2c1)N=C[C@]1(O3)N(C)c2ccccc2C1(C)C | > 38 µM (inactive) |
| CCCCCc1cc(=O)oc2c(C(CCN3CCCC(C)C3)c3ccc(OC)cc3)c(OC)cc(OC)c12 (stereo unspecified) | 10.1 µM |
| O=C1C(Cl)=C(N2CCCCC2)C(=O)N1c1ccccc1 | > 12 µM (inactive) |
| CC(=O)N(C1=C(Cl)C(=O)c2ccccc2C1=O)C1CCCCC1 | 2.79 µM |
| Nc1ccc(N2CCCCC2)c2nonc12 | 15.9 µM |
| Cc1ccc2c(c1)Oc1ccc(NC(=O)CCl)cc1C(=O)N2 | 6.94 µM |
| CCOC(=O)c1nn(-c2ccc(OC)cc2)c(=O)c2c(N)scc12 | > 38 µM (inactive) |
| Cn1c(/N=C/c2c(O)ccc3ccccc23)nc2ccccc21 | 10.6 µM |
| O=C(NC1=C(Nc2ccc(Cl)cc2)C(=O)c2ccccc2C1=O)c1ccccc1 | 34.4 µM |
| O=C(CCl)c1ccc2c(c1)CCN2C(=O)C1CCCCC1 | > 38 µM (inactive) |
| Cc1nn(-c2ccccc2)c2c1C1(C(=O)N3c4c(cccc41)C(C)CC3(C)C)C(C#N)=C(N)O2 (stereo unspecified) | 23.9 µM |
| Cc1noc(C)c1COC(=O)Cc1ccc(Br)cc1 | > 38 µM (inactive) |
| COc1ccc2ccc3c(c2c1)N=CC1(O3)N(C)c2ccccc2C1(C)C (stereo unspecified) | 4.49 µM |

| Compound | AC50 |
| --- | --- |
| COc1ccc(-c2cc(C#N)nc(Cl)n2)cc1 | > 38 µM (inactive) |
| Cn1c2ccccc2c2cc(C(=O)NNC(=O)CCl)sc21 | 16.2 µM |
| Cc1ccc(Sc2c([N+](=O)[O-])ncn2C)cc1 | > 38 µM (inactive) |
| CCCn1nc([N+](=O)[O-])c(C(C#N)c2nc3ccccc3s2)c(Cl)c1=O (stereo unspecified) | 23.4 µM |
| Cn1c(O)c(C2=NN(C(=O)CCl)C(c3ccccc3)C2)c(=O)n(C)c1=O (stereo unspecified) | 26.2 µM |
| Cc1ccc(NC2=C(NCCO)C(=O)c3ccccc3C2=O)cc1 | 20.3 µM |
| CC1CC(C)CN(C(=O)c2ccc3c(c2)N(Cc2ccccc2)CCS3)C1 (stereo unspecified) | 14 µM |
| Cc1nn(-c2cccc(Cl)c2)c2c1C(c1cccnc1)C(C#N)=C(N)O2 (stereo unspecified) | 34.6 µM |
| O=[N+]([O-])c1c(NCCO)cc(Sc2nc3ccccc3s2)c2nonc12 | 32.3 µM |
| CCc1oc2ccccc2c1C(=O)c1cc(Br)c(O)c(Br)c1 | 9.46 µM |
| CSc1nnc(NC(=O)c2nc(S(=O)(=O)Cc3ccccc3)ncc2Cl)s1 | > 38 µM (inactive) |
| COc1cccc(NC(=S)/C(=C(\[O-])c2ccc(OC(F)F)cc2)[n+]2ccccc2)c1 | 28.1 µM |
| CCCn1c(CC)nc([N+](=O)[O-])c1S(=O)(=O)c1ccccc1 | > 38 µM (inactive) |
| CC(C)Cn1c(C(C)C)nc([N+](=O)[O-])c1S(=O)(=O)c1ccc(F)cc1 | > 38 µM (inactive) |
| CN(CCc1cnn(C)c1)C(=O)C1CCC(=O)N(CC2CCCCC2)C1 (stereo unspecified) | > 38 µM (inactive) |
| Cc1[nH]nc2c1C1(CCN(C(=O)c3ccccc3)CC1)C(C#N)=C(N)O2 | > 38 µM (inactive) |
| N#Cc1c(-c2ccccc2)nc(SCC(=O)N2c3ccccc3Sc3ccccc32)[nH]c1=O | 8.24 µM |
| CCOC(=O)C1=C(c2ccccc2)O/C(=C(/C#N)C(F)(F)F)S1 | > 38 µM (inactive) |

From PubChem BioAssay AID449750 (Broad Institute, 2010)
